Results from PMC4809036, “Antitumor effects of cecropin B-LHRH’ on drug-resistant ovarian and endometrial cancer cells” (BMC Cancer, 2016).
Entries after “also recorded” stand apart in the source; their conditions may differ. Each block holds one molecule with its values, some of them ahead of it. No end group written: not given here.

Key:
[1] = tested on: four cancer cell lines (SKOV-3, ES-2, NIH:OVCAR-3, HEC-1A); set-up: method as in ATCC Global Bioresource Center (USA); details: ref ATCC Global Bioresource Center (USA); cited from earlier work
[2] = tested on: ES-2 tumors xenografted into nude mice; assay: ES-2 xenograft study in nude mice; format: in vivo, BALB/c-nu mice
Experimental: (§1) Five- to six-week-old female (15–20 g) athymic nude mice (BALB/c-nu) were obtained from Shanghai SLAC Laboratory Animal Corporation, China. The animals were housed in sterile cages under laminar flow hoods in a temperature controlled room with a 12-hour light/12-hour dark cycle, and fed autoclaved chow and water ad libitum. All experiments were carried out in accordance with the guidelines for the welfare ethics of experimental animals. All the animal-related procedures were approved by the Animal Ethical Committee of Zhejiang University.
(§2) Cultured ES-2 ovarian cancer cells were resuspended at 1 × 10^7/ml and inoculated subcutaneously into the nude mouse armpit. When tumors reached 60 mm^3, they were extracted, cut into pieces of about 2 mm^3, and inoculated subcutaneously into the nude mouse armpit. When the tumors reached an average volume of about 100 mm^3, the mice were randomly divided into five groups (n = 10). Groups 1–3 received intra-tumor injection of CB-LHRH’ twice daily at 12.5, 25 or 50 mg/kg^.d, respectively.
Tumor volumes were assessed every 3 d as 0.5 × length × width^2 (where length is the longest diameter across the tumor and width the corresponding perpendicular diameter as measured by calipers). On day 13, 4 h after the last dose, mice were sacrificed, and tumors excised and weighed; tumor growth inhibition rate was derived as (1-tumor weight treated/tumor weight control) × 100 %.
Anti-tumor activity was evaluated as relative growth of tumor volume (T/C, value), the mean relative tumor volume (RTV) for the treatment group divided by the mean RTV for the control group, as follows: T/C (%) = TRTV/CRTV X 100 %. RTV = Vt/V0, where Vt is the volume on any given day, and V0 the volume at treatment start.

Acinetobacter baumannii = assay: Antibacterial assay (agar dilution), Acinetobacter baumannii; format: cell-based; details: Muller Hinton’s agar, 22 h at 35 °C, clinical isolates
Experimental: (§3) The antibacterial activity of CB-LHRH’ was evaluated by the agar dilution method. Muller Hinton’s agar medium plates containing serial dilutions of CB-LHRH’ were inoculated with 2 μL of tenfold-diluted 0.5 McF bacteria and incubated for 22 h at 35 °C. The lowest concentration of CB-LHRH’ inhibiting bacterial growth was considered the minimal inhibitory concentration (MIC). Nine clinical strains of the following species were evaluated: Staphylococcus aureus, Klebsiella pneumoniae, Escherichia coli, Enterobacter cloacae, Pseudomonas aeruginosa, and Acinetobacter baumannii.

Escherichia coli = assay: Antibacterial assay (agar dilution), Escherichia coli; format: cell-based; details: Muller Hinton’s agar, 22 h at 35 °C, clinical isolates
Experimental: as §3

Staphylococcus aureus = assay: Antibacterial assay (agar dilution), Staphylococcus aureus; format: cell-based; details: Muller Hinton’s agar, 22 h at 35 °C, clinical isolates, listed as Cecropin B-LHRH’
Experimental: as §3

Pseudomonas aeruginosa = assay: Antibacterial assay (agar dilution), Pseudomonas aeruginosa; format: cell-based; details: Muller Hinton’s agar, 22 h at 35 °C, clinical isolates, listed as Cecropin B-LHRH’
Experimental: as §3

Klebsiella pneumoniae = assay: Antibacterial assay (agar dilution), Klebsiella pneumoniae; format: cell-based; details: Muller Hinton’s agar, 22 h at 35 °C, clinical isolates
Experimental: as §3

nude mice = assay: General toxicity (survival, body weight) in ES-2 xenograft mice; format: in vivo, BALB/c-nu mice; details: for surviving mice: intra-tumoral, twice daily, thirteen days later, n = 10 (PBS: 9 survived)
Experimental: as §1, §2
General toxicity was evaluated based on body weight, measured weekly.

guinea pigs = assay: Hypersensitization test in guinea pigs; details: n = 6
Experimental: Under approved animal research protocol standards, the hypersensitive reaction against CB-LHRH’ (2 mg/mL, equal to 438 μM) was assessed in guinea pigs. According to the Chinese Pharmacopoeia, six animals with an average weight of 250 g (XiFengYang Special Economic Animal Farm, Huzhou, China) were administered an intraperitoneal injection of 0.5 mL of CB-LHRH’ every other day three times, while three additional animals received PBS physiological saline injections. Of the six animals administered CB-LHRH’, three received an intravenous injection of 1 mL CB-LHRH’ at day 15, and the remaining three at day 22. Allergic reactions, such as piloerection, sneezing, lacrimation, dyspnoea, and hyperspasmia, were then monitored for the next 30 min.

Enterobacter cloacae = assay: Antibacterial assay (agar dilution), Enterobacter cloacae; format: cell-based; details: Muller Hinton’s agar, 22 h at 35 °C, clinical isolates
Experimental: as §3

LHRH receptor (LHRHr) = biological target: T1, LHRH receptor (LHRHr) (Rattus norvegicus, UniProt P30969); assay: radioligand saturation binding (Scatchard), rat pituitary membranes
T1 chain: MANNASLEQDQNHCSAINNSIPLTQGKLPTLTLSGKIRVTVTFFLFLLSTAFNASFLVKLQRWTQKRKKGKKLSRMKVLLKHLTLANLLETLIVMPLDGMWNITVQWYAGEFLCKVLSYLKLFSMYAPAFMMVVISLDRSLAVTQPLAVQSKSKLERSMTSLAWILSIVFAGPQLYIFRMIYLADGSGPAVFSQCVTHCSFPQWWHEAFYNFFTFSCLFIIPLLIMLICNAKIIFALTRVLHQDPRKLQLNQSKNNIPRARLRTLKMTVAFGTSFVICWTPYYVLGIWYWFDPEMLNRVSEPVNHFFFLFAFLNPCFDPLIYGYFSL

Molecule: N.N.[Cl][Pt][Cl] [Cisplatin]
resistance of the cell lines to the drug [1]: resistant | Tumor Volume, d 1 ([2]; cisplatin 0.67 mg/kg.d (2 mg/kg once every 3 days), d 1, Mean ± SD, n = 10 per group): 343.91 ± 123.06 mm^3 | Tumor Volume, d 13 ([2]; cisplatin 0.67 mg/kg.d (2 mg/kg once every 3 days), d 13, Mean ± SD, ** P < 0.01 vs PBS): 913.16 ± 142.64** mm^3 | T/C ([2]; cisplatin 0.67 mg/kg.d (2 mg/kg once every 3 days), d 13, RTV treated/RTV PBS control, ≤60 % = active): 42% | Tumor Weight ([2]; cisplatin 2 mg/kg once every 3 days, d 13, Mean ± SD, **P < 0.01 vs PBS): 1.09 ± 0.25 ** g

Molecule: KWKVFKKIEKMGRNIRNGIVKAGPAIAVLGEAKALSYGLRPG [CB-LHRH’]
MIC (Acinetobacter baumannii): 1.93 to 7.72 µM | MIC (Escherichia coli): 3.86 to 7.72 µM | MIC (Staphylococcus aureus): >15.44 µM | MIC (Pseudomonas aeruginosa): > = 15.44 μM | MIC (Klebsiella pneumoniae): 3.86 to 7.72 µM | surviving mice (nude mice; CB-LHRH’ 12.5 mg/kg.d): 8 | surviving mice (nude mice; CB-LHRH’ 25 mg/kg.d): 9 | surviving mice (nude mice; CB-LHRH’ 50 mg/kg.d): 7 | animal weights (nude mice; CB-LHRH’ intra-tumoral, by day 13): no differences were found in animal weights | hypersensitivity / anaphylaxis (guinea pigs; 0.5 mL of 2 mg/mL i.p. every other day three times, then 1 mL i.v. at day 15 or 22, monitored 30 min, data not shown): no hypersensitivity; also recorded: No anaphylaxis occurred in any of the six guinea pigs; also recorded: no hypersensitive reactions in guinea pigs | survival (guinea pigs; 0.5 mL of 2 mg/ml i.p. every other day three times): survived the 15 days of treatment | MIC (Enterobacter cloacae): 3.86 to 7.72 µM

Molecule: COc1cccc2c1C(=O)c1c(O)c3c(c(O)c1C2=O)C[C@@](O)(C(=O)CO)C[C@@H]3O[C@H]1C[C@H](N)[C@H](O)[C@H](C)O1 [doxorubicin]
resistance of the cell lines to the drug [1]: resistant

Molecule: diphtheria toxin
resistance of the cell lines to the drug [1]: resistant

Kd (LHRH receptor (LHRHr)): 0.253 nM
Molecule: KWKVFKKIEKMGRNIRNGIVKAGPAIAVLGEAKALSYGLRPG (also: 125I-labelled) [Cecropin B-LHRH' (CB-LHRH')]
